This is an account of results in patent US10562869B2, “Oxadiazole compounds” (REMYND NV, priority 2014, dated 2020).

This experiment concerns M17_3TAU(P301L) cells. As to the kind of experiment: Retinoic acid-induced cytotoxicity (LDH) in TAU-P301L expressing M17_3TAU(P301L) neuroblastoma cells. The format is cell-based. The settings on record: Homo sapiens, Neuroblastoma cell, 168 h; toxicity inhibition (LDH) in M17_3TAU(P301L) cells challenged with retinoic acid, 7 days. The text has this: A TAU expression plasmid was constructed by sub-cloning the cDNA encoding for human TAU-P301L protein, wherein proline at position 301 was substituted by a leucine residue, into mammalian expression vector pcDNA3.1 resulting in the plasmid pcDNA3.1-TAUP301L. Plasmid pcDNA3.1-TAU P301L was transfected into human neuroblastoma cells (BE-M17; ATCC No. CRL-2267™) using lipofectamine reagent and subsequently, independent clonal cell lines with the plasmids stably integrated into the genome were selected by antibiotic resistance selection (Geneticin (G418)), resulting in cell line M17_3TAUP301L. Expression of the TAUP301L gene in the M17_3TAUP301L cells was confirmed by Western blot analysis.
M17_3TAU(P301L) cells were treated chronically with retinoic acid (RA) in low serum conditions to induce Alzheimer's disease-like intracellular signaling deregulation leading to increased TAU levels and subsequent cell death. Cytotoxicity of cells was measured by quantification of lactate dehydrogenase (LDH) levels. In dead cells LDH leaked out of the cells into the medium due to a loss of plasma-membrane integrity.
3 days preceding the experiment, a pre-culture of M17_3TAU(P301L) cells was prepared, starting from a stock culture, at a density of 50.000-100.000 cells/cm^2 in culture medium (Optimem Reduced Serum with phenol red (Invitrogen, Cat. 31985-047)) supplemented with 10% fetal calf serum (FCS), 1 mM sodium pyruvate, 1×non-essential amino acids (NEAA), 500 μg/ml G418 and 0.5×(ABAM). At the day of the experiment these precultures were diluted to ˜0.1·10^6 cells/ml in detection medium (Optimem Reduced Serum without phenol red (Gibco, Cat.11058-021) supplemented with 1% fetal calf serum (FCS), 1 mM sodium pyruvate, 1×non-essential amino acids (NEAA), 500 μg/ml G418 and 0.5×ABAM) and 60 μL of this suspension was dispensed per well into a 96-well microtiter plate. After 3 hours of incubation at 37° C./5% CO2 an equal volume of detection medium (without FCS) containing 3.75 μM RA was added and subsequently incubated for 7 days at 37° C./5% CO2. Then LDH activity was determined using the Promega Cytotox 96 Non-Radioactive cytotoxicity assay (Cat. G1780), according to the manufacturer's instructions. Cytotoxicity was defined as the ratio of LDH relative the total LDH in the cells and supernatant.
The assay described above using the M17_3TAU(P301L) cell line allowed to screen compounds for their ability to decrease cytotoxicity in RA-challenged cells. Compounds of the invention were tested for their ability to decrease toxicity at different concentrations, ranging from low non-effective concentrations to high potent concentrations. Afterwards, the dose-dependent inhibition curve was used to calculate their EC50. A compound was considered to be active in this test when it inhibited toxicity by more than 20% relative to untreated M17_3TAU(P301L) cells at a concentration of 10 μM or lower.

One may read the EC50 as the midpoint of the concentration-response curve. As to `Clc1ccc(-c2noc(N3CCN(CCc4ccccc4)CC3)n2)cc1` [Cmpd020, 3-(4-Chlorophenyl)-5-(4-phenethylpiperazin-1-yl)-1,2,4-oxadiazole], the EC50 came to 10 nM.
In the case of `Clc1ccc(Cc2noc(N3CCN(Cc4ccccc4Cl)CC3)n2)cc1` [Cmpd062, 1-(2-Chloro-benzyl)-4-[3-(4-chloro-benzyl)-[1,2,4]oxadiazol-5-yl]-piperazine], the concentration for a half-maximal effect (EC50) was 2 nM.
As to `CC(C)CCN1CCN(c2nc(Cc3ccc(Cl)cc3)no2)CC1` [Cmpd067, 3-(4-Chlorobenzyl)-5-(4-isopentylpiperazin-1-yl)-1,2,4-oxadiazole], the EC50 came out at 22 nM.
As for `N#CCCCN1CCN(c2nc(Cc3ccc(Cl)cc3)no2)CC1` [Cmpd064, 4-{4-[3-(4-Chloro-benzyl)-[1,2,4]oxadiazol-5-yl]-piperazin-1-yl}-butyronitrile], the EC50 is 54 nM.
Compound `Cc1cccc(CN2CCN(c3nc(Cc4cccc(F)c4)no3)CC2)c1` [Cmpd089, 1-[3-(3-Fluoro-benzyl)-[1,2,4]oxadiazol-5-yl]-4-(3-methyl-benzyl)-piperazine] yielded an EC50 of 485 nM. This EC50 is about 9-fold higher than that of the compound before.
The compound `Cc1ccc(-c2noc(N3CCN(Cc4ccccc4C)CC3)n2)cc1` [Cmpd010, 5-(4-(2-Methylbenzyl)piperazin-1-yl)-3-(p-tolyl)-1,2,4-oxadiazole] came in with a concentration for a half-maximal effect (EC50) of 306 nM.
Compound `COc1cccc(CCN2CCN(c3nc(Cc4ccccc4)no3)CC2)c1` [Cmpd042, 1-(3-Benzyl-[1,2,4]oxadiazol-5-yl)-4-[2-(3-methoxy-phenyl)-ethyl]-piperazine] gave a half-maximal effective concentration (EC50) of 3 nM.
For the compound `COc1cc(CCN2CCN(c3nc(-c4ccccc4)no3)CC2)ccn1` [Cmpd004, 5-(4-(2-(2-Methoxypyridin-4-yl)ethyl)piperazin-1-yl)-3-phenyl-1,2,4-oxadiazole], the EC50 was 36 nM.
In the case of `Cc1ccccc1CN1CCN(c2nc(Cc3ccc(Cl)cc3)no2)CC1` [Cmpd058, 1-[3-(4-Chloro-benzyl)-[1,2,4]oxadiazol-5-yl]-4-(2-methyl-benzyl)-piperazine] it was 177 nM; in that of `FC(F)(F)CCc1noc(N2CCN(CCc3ccc(Cl)cc3)CC2)n1` [Cmpd174, 5-(4-(4-Chlorophenethyl)piperazin-1-yl)-3-(3,3,3-trifluoropropyl)-1,2,4-oxadiazole], 24 nM.
For the compound `Cc1ccc(-c2noc(N3CCN(Cc4ccc5c(c4)OCO5)CC3)n2)cc1` [Cmpd007, 5-(4-(Benzo[d][1,3]dioxol-5-ylmethyl)piperazin-1-yl)-3-(p-tolyl)-1,2,4-oxadiazole], a half-maximal effect (EC50) was put at 352 nM. This EC50 lies about 15-fold higher than the previous one.
The value for `Cc1ccc(CN2CCN(c3nc(-c4ccccc4)no3)CC2)cc1` [Cmpd002, 5-(4-(4-Methylbenzyl)piperazin-1-yl)-3-phenyl-1,2,4-oxadiazole] was 8 nM; that for `COc1cc(CCN2CCN(c3nc(-c4cccc(Cl)c4)no3)CC2)ccn1` [Cmpd025, 3-(3-Chlorophenyl)-5-(4-(2-(2-methoxypyridin-4-yl)ethyl)piperazin-1-yl)-1,2,4-oxadiazole] was 14 nM.
The value for `COc1cccc(CCN2CCN(c3nc(-c4ccc(C)cc4)no3)CC2)c1` [Cmpd009, 5-(4-(3-Methoxyphenethyl)piperazin-1-yl)-3-(p-tolyl)-1,2,4-oxadiazole] was 39 nM; that for `Cc1ccc(-c2noc(N3CCN(Cc4ccc(Cl)cc4)CC3)n2)cc1` [Cmpd008, 5-(4-(4-Chlorobenzyl)piperazin-1-yl)-3-(p-tolyl)-1,2,4-oxadiazole] was 182 nM.
In the case of `CCC(c1ccccc1)c1noc(N2CCN(Cc3ccc4c(c3)OCO4)CC2)n1` (centres unmarked) [Cmpd047, 5-(4-(Benzo[d][1,3]dioxol-5-ylmethyl)piperazin-1-yl)-3-(1-phenylpropyl)-1,2,4-oxadiazole] it was 63 nM; in that of `Clc1ccc(CCN2CCN(c3nc(-c4ccccc4)no3)CC2)cc1` [Cmpd003, 5-(4-(4-Chlorophenethyl)piperazin-1-yl)-3-phenyl-1,2,4-oxadiazole], 12 nM; in that of `COc1cccc(CCN2CCN(c3nc(Cc4cccc(F)c4)no3)CC2)c1` [Cmpd090, 1-[3-(3-Fluoro-benzyl)-[1,2,4]oxadiazol-5-yl]-4-[2-(3-methoxy-phenyl)-ethyl]-piperazine], 37 nM.
As to `Cc1ccccc1CN1CCN(c2nc(Cc3cccc(Cl)c3)no2)CC1` [Cmpd075, 1-[3-(3-Chloro-benzyl)-[1,2,4]oxadiazol-5-yl]-4-(2-methyl-benzyl)-piperazine], the EC50 worked out at 238 nM.
As for `COc1cccc(CCN2CCN(c3nc(C(C)(C)c4ccc(F)cc4)no3)CC2)c1` [Cmpd118, 3-(2-(4-Fluorophenyl)propan-2-yl)-5-(4-(3-methoxyphenethyl)piperazin-1-yl)-1,2,4-oxadiazole], the EC50 was 105 nM.
The value for `N#Cc1ccccc1CN1CCN(c2nc(-c3cccc(Cl)c3)no2)CC1` [Cmpd028, 2-((4-(3-(3-Chlorophenyl)-1,2,4-oxadiazol-5-yl)piperazin-1-yl)methyl)benzonitrile] was 48 nM; that for `Cc1cccc(CN2CCN(c3nc(CCC(F)(F)F)no3)CC2)n1` [Cmpd182, 5-(4-((6-Methylpyridin-2-yl)methyl)piperazin-1-yl)-3-(3,3,3-trifluoropropyl)-1,2,4-oxadiazole] was 282 nM.
The compound `CC(C)CCN1CCN(c2nc(CCC(F)(F)F)no2)CC1` [Cmpd179, 5-(4-Isopentylpiperazin-1-yl)-3-(3,3,3-trifluoropropyl)-1,2,4-oxadiazole] displayed an EC50 of 46 nM.
In the case of `Cc1ccccc1CN1CCN(c2nc(CCC(F)(F)F)no2)CC1` [Cmpd176, 5-(4-(2-Methylbenzyl)piperazin-1-yl)-3-(3,3,3-trifluoropropyl)-1,2,4-oxadiazole] it was 169 nM; in that of `Cc1ccccc1CN1CCN(c2nc(C3(c4ccccc4)CC3)no2)CC1` [Cmpd123, 5-(4-(2-Methylbenzyl)piperazin-1-yl)-3-(1-phenylcyclopropyl)-1,2,4-oxadiazole], 849 nM; in that of `Cc1ccc(CN2CCN(c3nc(Cc4ccc(Cl)cc4)no3)CC2)cc1` [Cmpd063, 1-[3-(4-Chloro-benzyl)-[1,2,4]oxadiazol-5-yl]-4-(4-methyl-benzyl)-piperazine], 174 nM.
`COc1cccc(CCN2CCN(c3nc(-c4ccc(Cl)cc4)no3)CC2)c1` [Cmpd021, 3-(4-Chlorophenyl)-5-(4-(3-methoxyphenethyl)piperazin-1-yl)-1,2,4-oxadiazole]: the EC50 amounted to 5 nM. Against the preceding compound, the EC50 is about 35-fold lower.
As for `Clc1ccc(Cc2noc(N3CCN(CC4CCOCC4)CC3)n2)cc1` [Cmpd069, 3-(4-Chlorobenzyl)-5-(4-((tetrahydro-2H-pyran-4-yl)methyl)piperazin-1-yl)-1,2,4-oxadiazole], the EC50 worked out at 161 nM.
In the case of `Fc1ccc(Cc2noc(N3CCN(Cc4ccc(Cl)cc4)CC3)n2)cc1F` [Cmpd097, 1-(4-Chloro-benzyl)-4-[3-(3,4-difluoro-benzyl)-[1,2,4]oxadiazol-5-yl]-piperazine] it was 486 nM; in that of `CC(C)CCN1CCN(c2nc(C3(c4ccccc4)CC3)no2)CC1` [Cmpd133, 5-(4-Isopentylpiperazin-1-yl)-3-(1-phenylcyclopropyl)-1,2,4-oxadiazole], 30 nM.
The value for `c1ccc(Cc2noc(N3CCN(Cc4ccc5c(c4)OCO5)CC3)n2)cc1` [Cmpd040, 1-Benzo[1,3]dioxol-5-ylmethyl-4-(3-benzyl-[1,2,4]oxadiazol-5-yl)-piperazine] was 64 nM; that for `COc1cccc(CCN2CCN(c3nc(C4(c5ccccc5)CC4)no3)CC2)c1` [Cmpd125, 5-(4-(3-Methoxyphenethyl)piperazin-1-yl)-3-(1-phenylcyclopropyl)-1,2,4-oxadiazole] was 103 nM.
In turn, `FC(F)(F)CCc1noc(N2CCN(CCN3CCOCC3)CC2)n1` [Cmpd180, 4-(2-(4-(3-(3,3,3-Trifluoropropyl)-1,2,4-oxadiazol-5-yl)piperazin-1-yl)ethyl)morpholine] displayed a 50% effective concentration (EC50) of 222 nM.
In turn, `CC(C)N1CCN(c2nc(Cc3ccc(Cl)cc3)no2)CC1` [Cmpd071, 3-(4-Chlorobenzyl)-5-(4-isopropylpiperazin-1-yl)-1,2,4-oxadiazole] yielded an EC50 of 133 nM.
The value for `Clc1ccc(CCN2CCN(c3nc(Cc4ccc(Cl)cc4)no3)CC2)cc1` [Cmpd059, 1-[3-(4-Chloro-benzyl)-[1,2,4]oxadiazol-5-yl]-4-[2-(4-chloro-phenyl)-ethyl]-piperazine] was 220 nM.
